Measured values published in patent publication US20230159442A1, “CELLULAR ENERGY COMPOUNDS, COMPOSITIONS, AND METHODS OF USE THEREOF” (priority 2021, published 2023).
Where two headings read alike, the source gives them in different places.

Tests used:
[1] = test system: Calu-3 (human airway epithelial cell line) host cells; assay type: cell-based
[2] = test system: Calu-3 (human airway epithelial cell line) host cells; assay type: cell-based; remark: listed apart in the source
T cells = assay type: cell-based, human; settings: T cells with T2 cells, Spike peptide […]; vs media alone
[3] = Saturated aqueous solubility determination; settings: for solubility at 1.5 h: deionized water, 25 °C, water, thermodynamic from solid; for Ratio (relative to CM): solubility relative to creatine monohydrate
Experimental: After 1.5 hour, the saturated solutions were vortexed and 2-ml aliquots removed and centrifuged in microcentrifuge tubes at 11,000 rpm for 5 min. Concentrations were analyzed by HPLC by diluting 500 μL of supernatant with mobile phase (500 μL). The mean±standard deviation of the saturation solubility for each antiviral therapeutic compound is calculated from the corresponding standard curves.

[4] = test system: Madin Darby canine kidney (MDCK) monolayers; test: Flux per hour in MDCK monolayers (contemplated); assay type: in vitro ADME
Text: […]. […] […].

Caco-2 monolayers = settings: cited from earlier work

Compound: C[N+](C)(C)CC(=O)OC1CCCC1.[Br-] [betaine cyclopentyl ester]
- reduction of TNF expression [1]: slightly reduces
- IL-1β expression as percent of the expression when no compound is present [2]: less than 20%
- IL-6 expression as percent of the expression when no compound is present [2]: less than 55%
- TNF expression as percent of the expression when no compound is present [2]: less than 20%
- reduction of IL-6 expression [2]: about 60%
- reduction of TNF expression [2]: about 45%
- release of IFNg from T cells (T cells): increased over the control
- solubility at 1.5 h [3]: > 600 mg/mL
- aqueous solubility compared with betaine hydrochloride ([3]; not shown): significantly greater than betaine hydrochloride
- Ratio (relative to CM) [3]: >29

Compound: CN(CC(=O)OC1CCCCC1)C(=N)N.Cc1ccc(S(=O)(=O)O)cc1 [creatine cyclohexyl ester]
- flux per hour relative to creatine monohydrate [4]: at least double
- IL-1β expression as percent of the expression when no compound is present [1]: less than 20%
- IL-6 expression as percent of the expression when no compound is present [1]: less than 30%
- release of IFNg from T cells (T cells): increased over the control
- solubility at 1.5 h [3]: 15 to 20 mg/mL
- Ratio (relative to CM) [3]: 0.71

Compound: CCOC(=O)CN(C)C(=N)N.Cl [creatine ethyl ester hydrochloride]
- solubility at 1.5 h [3]: > 200 mg/mL
- permeability relative to creatine monohydrate (Caco-2 monolayers): 15 fold

Compound: CCCCCCCCCCCC(=O)OCC(COC(=O)CCCCCCCCCCC)OC(=O)CN(C)C(=N)N [creatine glycerol laurate ester]
- flux per hour relative to creatine monohydrate [4]: at least double

Compound: CN(CC(=O)O)C(=N)N.Cl [creatine hydrochloride]
- reduction of TNF expression [1]: slightly reduces
- reduction of CXCL2 expression [2]: 25 to 30%
- reduction of TNF expression [2]: about 25%
- release of IFNg from T cells (T cells): increased over the control

Compound: CC(C)CCOC(=O)CN(C)C(=N)N.Cl [creatine isopentyl ester]
- IL-1β expression as percent of the expression when no compound is present [1]: less than 35%
- release of IFNg from T cells (T cells): increased over the control
- solubility at 1.5 h [3]: > 600 mg/mL
- Ratio (relative to CM) [3]: >29

Compound: CN(CC(=O)O)C(=N)N.O [creatine monohydrate, reference compound]
- apparent permeability coefficient (Caco-2 monolayers): about 0.12±0.004 10^−6 cm/s

Compound: CCCCCCCCCCCC(=O)OC(C)COC(=O)CN(C)C(=N)N (stereo not shown) [creatine propylene glycol laurate ester]
- flux per hour relative to creatine monohydrate [4]: at least double

Compound: ethyl (α-guanido-methyl) ethanoate [Alpha-GEE]
- reduction of CXCL2 expression [1]: ~70%
- release of IFNg from T cells (T cells): increased over the control
